Measured values from ChEMBL document CHEMBL4393689, “Discovery of fluorescent coumarin-benzo[b]thiophene 1, 1-dioxide conjugates as mitochondria-targeting antitumor STAT3 inhibitors” (Eur J Med Chem, 2019).
The source made the active and inactive calls. The rule behind the calls is not given here.

Experiments:
4T1 [1] = assay: Antitumor activity against mouse 4T1 cells implanted in BALB/c mouse assessed as reduction in tumor volume at 10 mg/kg, ip for 14 days; format: functional; conditions: 4T1, ip, 336 h
[2] = biological target: Signal transducer and activator of transcription 3 (Homo sapiens) (UniProt P40763); assay: Inhibition of STAT3 in human MDA-MB-231 cells assessed as decrease in cyclin D1 protein expression incubated for 24 hrs by Western blot analysis; format: cell-based
Signal transducer and activator of transcription 3 (Homo sapiens), sequence (P40763 whole entry): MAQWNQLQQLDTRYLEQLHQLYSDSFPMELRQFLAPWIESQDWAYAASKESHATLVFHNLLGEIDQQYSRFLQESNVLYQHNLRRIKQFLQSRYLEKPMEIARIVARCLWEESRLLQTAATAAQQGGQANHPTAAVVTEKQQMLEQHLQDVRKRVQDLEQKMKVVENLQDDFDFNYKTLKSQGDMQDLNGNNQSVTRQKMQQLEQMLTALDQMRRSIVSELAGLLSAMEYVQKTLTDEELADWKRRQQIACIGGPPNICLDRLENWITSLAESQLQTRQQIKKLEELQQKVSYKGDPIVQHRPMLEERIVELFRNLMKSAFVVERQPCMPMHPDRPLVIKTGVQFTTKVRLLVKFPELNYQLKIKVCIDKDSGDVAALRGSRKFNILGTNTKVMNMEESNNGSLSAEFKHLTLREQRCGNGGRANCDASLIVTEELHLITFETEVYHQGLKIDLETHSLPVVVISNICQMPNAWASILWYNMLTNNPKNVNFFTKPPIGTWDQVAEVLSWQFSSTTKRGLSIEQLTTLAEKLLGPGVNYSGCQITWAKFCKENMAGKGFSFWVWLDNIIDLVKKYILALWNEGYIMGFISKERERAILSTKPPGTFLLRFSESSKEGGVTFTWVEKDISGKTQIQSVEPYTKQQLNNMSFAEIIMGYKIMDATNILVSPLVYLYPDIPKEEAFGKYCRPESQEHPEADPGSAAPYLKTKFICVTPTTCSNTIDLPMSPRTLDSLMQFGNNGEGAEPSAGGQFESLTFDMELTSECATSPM

[3] = biological target: T1, Signal transducer and activator of transcription 1-alpha/beta (Homo sapiens) (UniProt P42224); assay: Inhibition of STAT1 in human MDA-MB-231 cells assessed as decrease in STAT1 phosphorylation at Y701 residue at 1 to 4 uM incubated for 24 hrs by Western blot analysis; format: cell-based
T1 sequence (whole entry): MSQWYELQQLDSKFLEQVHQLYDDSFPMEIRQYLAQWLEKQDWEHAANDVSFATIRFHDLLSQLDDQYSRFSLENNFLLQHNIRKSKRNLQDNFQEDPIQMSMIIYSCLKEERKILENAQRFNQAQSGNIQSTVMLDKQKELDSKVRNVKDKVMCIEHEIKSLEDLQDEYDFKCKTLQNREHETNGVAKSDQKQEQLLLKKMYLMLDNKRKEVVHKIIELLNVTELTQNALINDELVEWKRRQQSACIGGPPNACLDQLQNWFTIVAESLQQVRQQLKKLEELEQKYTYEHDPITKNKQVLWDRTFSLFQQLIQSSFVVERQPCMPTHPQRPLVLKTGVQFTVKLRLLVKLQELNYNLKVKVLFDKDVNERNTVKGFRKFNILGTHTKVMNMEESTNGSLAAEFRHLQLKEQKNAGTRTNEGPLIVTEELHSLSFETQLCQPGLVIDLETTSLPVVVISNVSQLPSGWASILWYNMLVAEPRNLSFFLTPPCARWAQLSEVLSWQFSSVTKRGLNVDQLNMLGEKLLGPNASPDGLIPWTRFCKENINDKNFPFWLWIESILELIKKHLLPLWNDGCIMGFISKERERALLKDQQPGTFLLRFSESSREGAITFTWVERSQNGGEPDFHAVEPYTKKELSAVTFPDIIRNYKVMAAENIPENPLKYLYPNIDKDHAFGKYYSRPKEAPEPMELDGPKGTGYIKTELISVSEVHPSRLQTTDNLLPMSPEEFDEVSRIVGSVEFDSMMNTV

[4] = biological target: Signal transducer and activator of transcription 3 (Homo sapiens) (UniProt P40763); assay: Inhibition of STAT3 in human MDA-MB-231 cells assessed as decrease in Bcl2 protein expression incubated for 24 hrs by Western blot analysis; format: cell-based
[5] = biological target: Mitogen-activated protein kinase; ERK1/ERK2 (Homo sapiens) (UniProt P27361+P28482); assay: Inhibition of ERK 1/2 in human MDA-MB-231 cells assessed as reduction in ERK 1/2 phosphorylation at 1 to 4 uM incubated for 24 hrs by Western blot analysis; format: cell-based
Mitogen-activated protein kinase; ERK1/ERK2 (Homo sapiens), sequence (P27361 whole entry, looked up): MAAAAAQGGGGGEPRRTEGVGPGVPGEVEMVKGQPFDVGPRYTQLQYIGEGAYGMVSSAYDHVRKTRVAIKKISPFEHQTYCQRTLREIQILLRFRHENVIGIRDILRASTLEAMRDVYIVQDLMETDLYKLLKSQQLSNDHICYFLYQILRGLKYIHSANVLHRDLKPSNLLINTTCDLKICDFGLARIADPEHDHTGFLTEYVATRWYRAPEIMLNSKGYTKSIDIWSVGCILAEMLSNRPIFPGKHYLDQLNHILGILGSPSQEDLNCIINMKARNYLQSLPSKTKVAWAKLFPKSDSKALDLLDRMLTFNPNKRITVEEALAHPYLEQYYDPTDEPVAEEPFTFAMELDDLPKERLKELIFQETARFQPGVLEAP
Mitogen-activated protein kinase; ERK1/ERK2 (Homo sapiens), sequence (P28482 whole entry, looked up): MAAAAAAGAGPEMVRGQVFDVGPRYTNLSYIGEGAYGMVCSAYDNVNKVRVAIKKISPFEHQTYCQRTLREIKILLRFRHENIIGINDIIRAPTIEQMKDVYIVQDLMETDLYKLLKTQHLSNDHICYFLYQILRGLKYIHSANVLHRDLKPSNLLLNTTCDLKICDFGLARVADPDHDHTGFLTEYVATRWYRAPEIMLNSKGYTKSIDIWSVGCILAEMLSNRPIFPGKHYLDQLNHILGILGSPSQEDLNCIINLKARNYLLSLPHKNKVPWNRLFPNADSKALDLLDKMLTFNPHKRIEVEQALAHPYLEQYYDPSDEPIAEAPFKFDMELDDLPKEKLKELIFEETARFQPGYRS

MDA-MB-231 [6] = assay: Induction of apoptosis in human MDA-MB-231 cells assessed as late apoptotic cells at 4 uM incubated for 24 hrs by annexinV-FITC and propidium iodide staining based flow cytometric analysis (reference value: 1.0%); format: functional
4T1 [7] = assay: Reduction in STAT3 phosphorylation at Tyr705 residue in mouse 4T1 cells implanted in BALB/c mouse at 10 to 20 mg/kg, ip for 14 days by Western blot analysis; format: functional, organism-based
MDA-MB-231 [8] = assay: Induction of apoptosis in human MDA-MB-231 cells assessed as increase in cleaved PARP levels at 1 to 4 uM incubated for 24 hrs by Western blot analysis; format: functional, cell-based
[9] = biological target: Proto-oncogene tyrosine-protein kinase Src (Homo sapiens) (UniProt P12931); assay: Inhibition of Src in human MDA-MB-231 cells assessed as reduction in Src phosphorylation at 1 to 4 uM incubated for 24 hrs by Western blot analysis; format: cell-based
Proto-oncogene tyrosine-protein kinase Src (Homo sapiens), sequence (P12931 2-536 limits assumed): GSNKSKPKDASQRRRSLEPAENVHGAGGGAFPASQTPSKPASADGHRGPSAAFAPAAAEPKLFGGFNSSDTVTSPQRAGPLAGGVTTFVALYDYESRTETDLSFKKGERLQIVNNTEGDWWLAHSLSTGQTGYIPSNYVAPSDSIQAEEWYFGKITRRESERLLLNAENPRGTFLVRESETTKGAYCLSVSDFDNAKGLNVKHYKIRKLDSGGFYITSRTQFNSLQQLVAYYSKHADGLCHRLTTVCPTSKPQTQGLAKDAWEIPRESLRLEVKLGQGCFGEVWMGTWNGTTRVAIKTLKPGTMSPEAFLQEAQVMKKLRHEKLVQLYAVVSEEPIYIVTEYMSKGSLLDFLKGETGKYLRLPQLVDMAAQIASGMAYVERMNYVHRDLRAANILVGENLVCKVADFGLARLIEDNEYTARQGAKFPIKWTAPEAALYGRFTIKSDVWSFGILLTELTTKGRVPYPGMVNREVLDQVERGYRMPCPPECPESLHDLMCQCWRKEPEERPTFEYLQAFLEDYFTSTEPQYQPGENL

HCT-116 [10] = assay: Potency index, ratio of IC50 of BTP to ratio of IC50 of compound for antiproliferative activity against human HCT116 cells assessed as reduction in cell viability incubated for 48 hrs by MTT assay; format: functional
HCT-116 [11] = assay: Antiproliferative activity against human HCT116 cells assessed as reduction in cell viability incubated for 48 hrs by MTT assay; format: functional, cell-based; conditions: HCT-116, 48 h
MDA-MB-231 [12] = assay: Induction of apoptosis in human MDA-MB-231 cells assessed as early apoptotic cells at 2 uM incubated for 24 hrs by annexinV-FITC and propidium iodide staining based flow cytometric analysis (reference value: 3.2%); format: functional
MDA-MB-231 [13] = assay: Inhibition of colony formation in human MDA-MB-231 cells assessed as reduction in cell proliferation at 1 uM treated for 24 hrs and measured after 10 to 14 days by crystal violet staining based assay; format: functional
MCF-10A = assay: Cytotoxicity against human MCF10A cells assessed as reduction in cell viability incubated for 48 hrs by MTT assay; format: cell-based
[14] = Selectivity index, ratio of IC50 for human MCF10A cells to IC50 for human MDA-MB-231 cells; format: toxicity; conditions: MCF10A cells versus MDA-MB-231 cells, read-out: Ratio IC50
MDA-MB-231 [15] = assay: Induction of apoptosis in human MDA-MB-231 cells assessed as increase in cleaved caspase-9 levels at 1 to 4 uM incubated for 24 hrs by Western blot analysis; format: functional, cell-based
MCF7 = assay: Potency index, ratio of IC50 of BTP to ratio of IC50 of compound for antiproliferative activity against human MCF7 cells assessed as reduction in cell viability incubated for 48 hrs by MTT assay; format: functional
MDA-MB-231 [16] = assay: Effect on total STAT3 expression in human MDA-MB-231 cells at 1 to 4 uM incubated for 24 hrs by Western blot analysis; format: ADME, cell-based; conditions: mda-mb-231, 24 h
MDA-MB-231 [17] = assay: Induction of apoptosis in human MDA-MB-231 cells assessed as increase in cleaved caspase-3 levels at 1 to 4 uM incubated for 24 hrs by Western blot analysis; format: functional, cell-based
[18] = biological target: Signal transducer and activator of transcription 3 (Homo sapiens) (UniProt P40763); assay: Inhibition of STAT3 in human MDA-MB-231 cells assessed as decrease in STAT3 phosphorylation at Tyr705 residue incubated for 24 hrs by Western blot analysis; format: cell-based
HepG2 = assay: Potency index, ratio of IC50 of BTP to ratio of IC50 of compound for antiproliferative activity against human HepG2 cells assessed as reduction in cell viability incubated for 48 hrs by MTT assay; format: functional
4T1 [19] = assay: Antitumor activity against mouse 4T1 cells implanted in BALB/c mouse assessed as reduction in tumor weight at 10 mg/kg, ip for 14 days; format: functional; conditions: 4T1, ip, 336 h
[20] = biological target: Tyrosine-protein kinase JAK2 (Homo sapiens) (UniProt O60674); assay: Inhibition of JAK2 in human MDA-MB-231 cells assessed as reduction in JAK2 phosphorylation at 1 to 4 uM incubated for 24 hrs by Western blot analysis; format: cell-based
Tyrosine-protein kinase JAK2 (Homo sapiens), sequence (O60674 whole entry): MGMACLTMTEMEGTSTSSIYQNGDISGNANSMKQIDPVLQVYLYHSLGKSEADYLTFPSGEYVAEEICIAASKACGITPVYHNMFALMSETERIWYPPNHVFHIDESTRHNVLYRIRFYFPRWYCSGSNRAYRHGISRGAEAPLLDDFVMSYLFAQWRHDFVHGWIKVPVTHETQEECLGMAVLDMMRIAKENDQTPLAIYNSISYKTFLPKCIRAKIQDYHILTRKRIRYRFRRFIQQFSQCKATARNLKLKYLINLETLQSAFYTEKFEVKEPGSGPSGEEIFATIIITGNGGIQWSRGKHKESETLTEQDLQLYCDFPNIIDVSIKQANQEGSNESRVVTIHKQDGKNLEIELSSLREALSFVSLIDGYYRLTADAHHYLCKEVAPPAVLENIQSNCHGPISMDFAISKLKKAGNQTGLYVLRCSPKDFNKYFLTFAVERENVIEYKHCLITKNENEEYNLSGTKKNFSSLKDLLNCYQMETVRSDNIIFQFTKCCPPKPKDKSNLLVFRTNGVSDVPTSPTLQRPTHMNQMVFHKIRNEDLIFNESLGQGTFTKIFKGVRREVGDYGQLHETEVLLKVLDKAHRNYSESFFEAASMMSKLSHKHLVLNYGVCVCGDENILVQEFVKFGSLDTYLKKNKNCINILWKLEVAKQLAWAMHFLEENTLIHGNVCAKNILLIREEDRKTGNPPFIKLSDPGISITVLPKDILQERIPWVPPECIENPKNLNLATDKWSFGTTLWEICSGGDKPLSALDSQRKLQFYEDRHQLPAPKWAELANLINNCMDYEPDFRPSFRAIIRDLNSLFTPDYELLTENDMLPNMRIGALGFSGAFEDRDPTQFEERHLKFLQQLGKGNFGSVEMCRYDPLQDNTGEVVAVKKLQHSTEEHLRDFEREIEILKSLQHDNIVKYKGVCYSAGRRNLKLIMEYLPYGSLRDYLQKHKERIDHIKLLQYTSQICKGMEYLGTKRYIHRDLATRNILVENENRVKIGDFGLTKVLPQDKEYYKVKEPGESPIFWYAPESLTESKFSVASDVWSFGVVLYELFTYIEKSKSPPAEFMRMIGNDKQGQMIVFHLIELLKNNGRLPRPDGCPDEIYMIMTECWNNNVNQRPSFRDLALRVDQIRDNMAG

[21] = Drug accumulation in mitochondria of human MCF7 cells at 5 uM incubated for 60 mins by mitotracker red staining based confocal microscopy; format: ADME; conditions: mcf7, 1 h
[22] = Selectivity index, ratio of IC50 for human L02 cells to IC50 for human HepG2 cells; format: toxicity; conditions: L02 cells versus HepG2 cells, read-out: Ratio IC50

For `CCN(CC)c1ccc2cc(C(=O)N3CCN(C(=O)C4=Cc5c(Br)cccc5S4(=O)=O)CC3)c(=O)oc2c1`, which inhibition in vivo at 10 mg/kg (4T1 [1]) is on record?
Its inhibition in vivo at 10 mg/kg is 52.3%.

And the inhibition [2]?
Its inhibition is “Dose-dependent effect”.

What about the inhibition [3] of the same molecule?
The inhibition was “inactive”.

What about the inhibition [4] of the same molecule?
The inhibition was “Dose-dependent effect”.

And the inhibition [5]?
Its inhibition is “inactive”.

What about the Activity (MDA-MB-231 [6]) of the same molecule?
Its Activity is 4.8%.

And the inhibition (4T1 [7])?
Its inhibition is “Active”.

And the Activity (MDA-MB-231 [8])?
The Activity was “Active”.

What about the inhibition [9] of the same molecule?
The inhibition was “inactive”.

And the “Ratio IC50” value (HCT-116 [10])?
The value was 4.6 - 19.

And the IC50 (HCT-116 [11])?
The IC50 was 1.89 µM.

What about the Activity (MDA-MB-231 [12]) of the same molecule?
The Activity was 7.4%.

And the inhibition (MDA-MB-231 [13])?
Its inhibition is “Active”.

What about the IC50 (MCF-10A) of the same molecule?
Its IC50 is 14.6 µM.

What about the selectivity ratio [14] of the same molecule?
Its selectivity ratio is 10.2.

What about the Activity (MDA-MB-231 [15]) of the same molecule?
The Activity was “Active”.

And the “Ratio IC50” value (MCF7)?
The value was 4.6 - 19.

And the Activity (MDA-MB-231 [16])?
Its Activity is “Non-Toxic”.

What about the Activity (MDA-MB-231 [17]) of the same molecule?
Its Activity is “Active”.

What about the inhibition [18] of the same molecule?
The inhibition was “Dose-dependent effect”.

And the “Ratio IC50” value (HepG2)?
The value was 4.6 - 19.

What about the inhibition in vivo at 10 mg/kg (4T1 [19]) of the same molecule?
Its inhibition in vivo at 10 mg/kg is 39.7%.

What about the inhibition [20] of the same molecule?
Its inhibition is “inactive”.

What about the Drug uptake [21] of the same molecule?
The Drug uptake was “Active”.

And the selectivity ratio [22]?
The selectivity ratio was 12.4.
